From patent publication US5225528A, “Cyclic hexapeptide oxytocin antagonists” (priority 1990, dated 1993)
Read-outs that look alike come from different tables or passages of the source. Square brackets hold non-standard residues; d marks the D form. Peptide text beside a SMILES is read from it. * marks the point of attachment. dPip(4-aza,4-Cbz) = O=C(O)[C@H]1CN(C(=O)OCc2ccccc2)CCN1; NH(2-(imidazol-4-yl)ethyl) = c1ncc(CCN*)[nH]1; dPiz(1,6-dehydro) = O=C(O)[C@H]1CCC=NN1; d2Nal = N[C@H](Cc1ccc2ccccc2c1)C(=O)O; Ethyl(2-morpholino) = C1CN(CC*)CCO1; dNMeY = CN[C@H](Cc1ccc(O)cc1)C(=O)O; dNMeF = CN[C@H](Cc1ccccc1)C(=O)O; dPip(4-aza) = O=C(O)[C@H]1CNCCN1; hPhe = N[C@@H](CCc1ccccc1)C(=O)O; X7 = C[N+]12CCC(CC1)C(C(=O)*)C2; Pip = O=C(O)[C@@H]1CCCCN1; dPip = O=C(O)[C@H]1CCCCN1; Orn = NCCC[C@H](N)C(=O)O; Cbz = O=C(OCc1ccccc1)*; Boc = CC(C)(C)OC(=O)*; Bn = c1ccc(C*)cc1

Assays:
AVP-V2 sites = molecular target: T1, AVP-V2 sites (Rattus norvegicus, UniProt Q00788); assay: [^3 H]AVP binding to crude membrane preparation of male rat kidney medulla (AVP-V2 sites)
T1 construct: male rat liver (AVP-V1 sites) or kidney medulla (AVP-V2 sites); from tissue; host or cells: male rat kidney medulla, crude membranes
T1 sequence (Q00788 whole entry): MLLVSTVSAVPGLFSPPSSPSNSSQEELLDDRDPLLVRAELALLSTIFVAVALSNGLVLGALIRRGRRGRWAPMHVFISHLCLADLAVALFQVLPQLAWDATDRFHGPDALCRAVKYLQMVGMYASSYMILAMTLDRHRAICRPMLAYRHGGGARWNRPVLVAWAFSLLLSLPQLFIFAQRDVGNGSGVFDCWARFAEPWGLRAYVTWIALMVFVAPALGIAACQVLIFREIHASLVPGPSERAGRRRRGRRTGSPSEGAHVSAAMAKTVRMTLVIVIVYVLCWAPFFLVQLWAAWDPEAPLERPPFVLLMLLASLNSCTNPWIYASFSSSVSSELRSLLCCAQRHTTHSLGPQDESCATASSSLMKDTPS
Method: (§1) Nonspecific binding (5-10% of the total binding) was determined using 10 μM unlabeled AVP, and the binding reaction was terminated by filtration as described above for the [^3 H]OT binding assay.

uterine OT receptors = molecular target: T2, uterine OT receptors (Rattus norvegicus, UniProt P70536); assay: [^3 H]OT binding to uterine OT receptors, crude membrane preparation of uteri from DES-treated rats; settings: for IC50: rat uterus membranes, 1 nM [^3 H]OT, read-out: Receptor Binding Results IC50 (nM) [^3 H]OT; for inhibition at 0.1 µM: 1 h, @ 100 (nM), read-out: [^3 H]OT: percent inhibition of radioligand at the given concentration
T2 construct: from tissue; host or cells: uterus of DES-treated rats, crude membranes
T2 sequence (P70536 1-388): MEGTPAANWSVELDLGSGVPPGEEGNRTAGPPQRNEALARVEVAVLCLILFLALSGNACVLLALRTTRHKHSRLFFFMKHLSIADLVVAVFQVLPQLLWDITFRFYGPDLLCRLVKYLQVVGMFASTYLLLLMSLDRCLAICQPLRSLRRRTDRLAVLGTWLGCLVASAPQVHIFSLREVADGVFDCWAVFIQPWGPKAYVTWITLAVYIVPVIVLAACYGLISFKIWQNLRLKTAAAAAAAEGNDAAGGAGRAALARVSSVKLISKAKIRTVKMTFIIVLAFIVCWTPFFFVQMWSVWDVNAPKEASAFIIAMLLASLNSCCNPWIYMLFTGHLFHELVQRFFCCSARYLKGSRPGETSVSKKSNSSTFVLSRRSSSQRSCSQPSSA
Method: Competition studies were conducted at equilibrium (60 minutes; 22° C.) using 1 nM [^3 H]OT in the following assay buffer: 50 mM Tris-HCl, 5 mM MgCl2, and 0.1% BSA, pH 7.4.

AVP-V1 sites = molecular target: T3, AVP-V1 sites (Rattus norvegicus, UniProt P30560); assay: [^3 H]AVP binding to crude membrane preparation of male rat liver (AVP-V1 sites)
T3 construct: crude membrane preparation of male rat liver (AVP-V1 sites); from tissue; host or cells: male rat liver, crude membranes
T3 sequence (P30560 whole entry): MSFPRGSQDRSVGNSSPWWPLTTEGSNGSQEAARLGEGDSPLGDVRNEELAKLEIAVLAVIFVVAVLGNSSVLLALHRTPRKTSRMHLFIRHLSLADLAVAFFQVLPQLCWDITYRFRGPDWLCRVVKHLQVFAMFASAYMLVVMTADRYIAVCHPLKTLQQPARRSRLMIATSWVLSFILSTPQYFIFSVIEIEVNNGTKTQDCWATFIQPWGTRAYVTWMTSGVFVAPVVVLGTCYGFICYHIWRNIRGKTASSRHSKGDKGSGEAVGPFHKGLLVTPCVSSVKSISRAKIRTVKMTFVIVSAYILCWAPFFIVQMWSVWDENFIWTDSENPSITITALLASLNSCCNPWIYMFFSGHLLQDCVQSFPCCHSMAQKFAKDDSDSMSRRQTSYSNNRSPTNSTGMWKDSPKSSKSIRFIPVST
Method: as §1

[1] = Receptor Binding Results IC50 (nM) [^3 H]-AVP-V2
[2] = Receptor Binding Results IC50 (nM) [^3 H]-AVP-V1
[3] = rat kidney medulla membranes, 2 nM [^3 H]AVP, read-out: Receptor Binding Results IC50 (nM) [^3 H]-AVP-V2
[4] = read-out: Receptor Binding Results IC50 (nM) [^3 H]-AVP-V1

| Molecule | IC50 (uterine OT receptors) | IC50 (AVP-V1 sites; [2]) | IC50 (AVP-V2 sites; [3]) | other results |
| --- | --- | --- | --- | --- |
| CC[C@H](C)[C@@H]1NC(=O)[C@@H](Cc2c[nH]c3ccccc23)NC(=O)[C@@H]2CCCN2C(=O)[C@@H](Cc2ccccc2)N(C)C(=O)[C@H]2CN(C(=O)OCc3ccccc3)CCN2C(=O)[C@H]2CCCCN2C1=O [Example 91, c-[D-Tryptophanyl-L-isoleucinyl-D-pipecolyl-D-piperazin-2-yl(4-Cbz)-D-(N^α -methyl)phenylalanyl-L-prolyl]] (cyclo(I[dPip][dPip(4-aza,4-Cbz)][dNMeF]P[dW])) | 93 nM | > 10000 nM |  | IC50 (AVP-V2 sites; [1]): > 1000 nM |
| CC[C@H](C)[C@@H]1NC(=O)[C@@H](Cc2ccccc2)NC(=O)[C@@H]2CCCN2C(=O)[C@@H](Cc2ccccc2)N(C)C(=O)[C@H]2CN(C(=O)OCc3ccccc3)CCN2C(=O)[C@H]2CN(C(=O)OCc3ccccc3)CCN2C1=O [Example 85, c-[Phenylalanyl-L-isoleucinyl-D-piperazin-2-yl(4-Cbz)-D-piperazin-2-yl(4-Cbz)-D-(N^α -methyl)phenylalanyl-L-prolyl]] (cyclo([dF]I[dPip(4-aza,4-Cbz)][dPip(4-aza,4-Cbz)][dNMeF]P)) | 1000 nM | > 10000 nM | 10000 nM |  |
| CC[C@H](C)[C@@H]1NC(=O)[C@@H](Cc2ccccc2)NC(=O)[C@@H]2CCCN2C(=O)[C@@H](Cc2ccccc2)NC(=O)[C@@H]2CCCCN2C(=O)[C@H]2CN(C(=O)OCc3ccccc3)CCN2C1=O [Example 83, c-[D-Phenylalanyl-L-isoleucinyl-D-piperazin-2-yl-(4-Cbz)-L-pipecolyl-D-phenylalanyl-L-prolyl]] (cyclo(I[dPip(4-aza,4-Cbz)][Pip][dF]P[dF])) | 940 nM | 10000 nM | 10000 nM |  |
| CC[C@H](C)[C@@H]1NC(=O)[C@@H](Cc2ccc(OC)cc2)NC(=O)[C@@H]2CCCN2C(=O)[C@@H](Cc2ccccc2)N(C)C(=O)[C@H](CCCCN)NC(=O)[C@H]2CCCCN2C1=O [Example 150, c-[D-(O-Methyl)Tyrosyl-L-isoleucyl-D-pipecolyl-L-lysyl-D-(N-methyl)phenylalanyl-L-prolyl]] (cyclo(I[dPip]K[dNMeF]P[dY](Me))) | 44 nM | 10000 nM |  | inhibition at 1 µM (AVP-V2 sites; 0.5 h, @ 1,000 (nM), read-out: [^3 H]-AVP-V2: percent inhibition of radioligand at the given concentration): 62% |
| C-[D,L-3-(3-(5-Methoxy)indolyl)alanyl-L-isoleucyl-D-pipecolyl-L-pipecolyl-D-histidyl-L-prolyl] [Example 156] | 1100 nM |  | > 30000 nM | IC50 (AVP-V1 sites; rat liver membranes, 1 nM [^3 H]AVP, read-out: Receptor Binding Results IC50 (nM) [^3 H]-AVP-V1): > 30000 nM |
| CC[C@H](C)[C@@H]1NC(=O)[C@@H](Cc2ccccc2)NC(=O)[C@@H]2CCCN2C(=O)[C@@H](Cc2ccc(OCCN3CCOCC3)cc2)N(C)C(=O)[C@@H]2CCCCN2C(=O)[C@H]2CCCCN2C1=O [Example 50] (cyclo(I[dPip][Pip][dNMeY](Ethyl(2-morpholino))P[dF])) | 310 nM | > 10000 nM |  | IC50 (AVP-V2 sites; [1]): > 1000 nM |
| CC[C@H](C)[C@@H]1NC(=O)[C@@H](Cc2c[nH]c3ccccc23)NC(=O)[C@@H]2CCCN2C(=O)[C@@H](Cc2ccccc2)N(C)C(=O)[C@H](CCCNC(=O)OC(C)(C)C)NC(=O)[C@H]2CCC=NN2C1=O [Example 126, c-[D-Tryptophanyl-L-isoleucyl-D-Δ-piperazyl (N^δ -Boc)-L-ornithyl-N-methyl-D-phenylalanyl-L-prolyl]] (cyclo(I[dPiz(1,6-dehydro)][Orn](Boc)[dNMeF]P[dW])) | 15 nM | > 1000 nM |  | IC50 (AVP-V2 sites; [1]): 1000 nM |
| CC[C@H](C)[C@@H]1NC(=O)[C@@H](Cc2ccc(OC)cc2)NC(=O)[C@@H]2CCCN2C(=O)[C@@H](Cc2ccccc2)N(C)C(=O)[C@H](CCCCNC(=O)OC(C)(C)C)NC(=O)[C@H]2CCCCN2C1=O [Example 149, c-[D-(O-Methyl)Tyrosyl-L-isoleucyl-D-pipecolyl-L-(N-t-butyloxycarbonyl)lysyl-D-(N-methyl)phenylalanyl-L-prolyl]] (cyclo(I[dPip]K(Boc)[dNMeF]P[dY](Me))) |  | > 10000 nM | 10000 nM | inhibition at 0.1 µM (uterine OT receptors): 53% |
| CC[C@H](C)[C@@H]1NC(=O)[C@@H](Cc2ccc3ccccc3c2)NC(=O)[C@@H]2CCCN2C(=O)[C@@H](Cc2ccccc2)N(C)C(=O)[C@H](CCCCN)NC(=O)[C@H]2CCCCN2C1=O [Example 141, C-[D-2-Napthylalanyl-L-isoleucyl-D-pipecolyl-L-lysyl-D-(N-methyl)phenylalanyl-L-prolyl]] (cyclo([d2Nal]I[dPip]K[dNMeF]P)) | 45 nM |  |  | [^3 H]-AVP-V2: percent inhibition of radioligand at the given concentration (AVP-V2 sites; @ 1,000 (nM)): 78%; [^3 H]-AVP-V1: percent inhibition of radioligand at the given concentration (AVP-V1 sites): 48% |
| CC[C@H](C)[C@@H]1NC(=O)[C@@H](Cc2ccccc2)NC(=O)[C@@H]2CCCN2C(=O)[C@@H](Cc2ccccc2)NC(=O)[C@H]2CNCCN2C(=O)[C@H]2CCCCN2C1=O [Example 78, c-[D-Phenylalanyl-L-isoleucinyl-D-pipecolyl-D-piperazin-2-yl-D-phenylalanyl-L-prolyl]] (cyclo(I[dPip][dPip(4-aza)][dF]P[dF])) | 300 nM |  | > 10000 nM | IC50 (AVP-V1 sites; [4]): 7900 nM |
| CC[C@H](C)[C@@H]1NC(=O)[C@@H](Cc2ccccc2)NC(=O)[C@@H]2CCCN2C(=O)[C@@H](Cc2ccccc2)N(C)C(=O)[C@H](CO)NC(=O)[C@H]2CCCN2C1=O [Example 114, c-[D-Phenylalanyl-L-isoleucyl-D-prolyl-L-seryl-N-methyl-D-phenylalanyl-L-prolyl]] (cyclo(I[dP]S[dNMeF]P[dF])) | 675 nM | > 10000 nM | > 10000 nM |  |
| CC[C@H](C)[C@@H]1NC(=O)[C@@H](Cc2c[nH]c3ccccc23)NC(=O)[C@@H]2CCCN2C(=O)[C@@H](Cc2c[nH]cn2)NC(=O)[C@H](CCCCNC(=O)OCc2ccccc2)NC(=O)[C@H]2CCCCN2C1=O [Example 38, Cyclo[D-tryptophanyl-L-isoleucyl-D-pipecolyl-L-(carbobenzyloxy)lysyl-D-histidyl-L-prolyl]] (cyclo(I[dPip]K(Cbz)[dH]P[dW])) |  | > 1000 nM | 10000 nM | inhibition at 0.1 µM (uterine OT receptors): 60% |
| CC[C@H](C)[C@@H]1NC(=O)[C@@H](Cc2ccccc2)NC(=O)[C@@H]2CCCN2C(=O)[C@@H](Cc2ccc(OCc3ccccc3)cc2)N(C)C(=O)[C@@H]2CCCCN2C(=O)[C@H]2CCCCN2C1=O [Example 28, Cyclo[D-phenylalanyl-L-isoleucyl-D-pipecolyl-L-pipecolyl-D-(N^α methyl-O-Benzyl)-tyrosyl-L-prolyl]] (cyclo(I[dPip][Pip][dNMeY](Bn)P[dF])) |  | > 10000 nM | 10000 nM | inhibition at 0.1 µM (uterine OT receptors): 28% |
| CN1C(=O)[C@@H]2CCCCN2C(=O)[C@H]2CCCCN2C(=O)[C@H](CCc2ccccc2)NC(=O)[C@@H](Cc2c[nH]c3ccccc23)NC(=O)[C@@H]2CCCN2C(=O)[C@H]1Cc1ccccc1 [Example 32, Cyclo[D-trytophanyl-L-homophenylalanyl-D-pipecolyl-L-pipecolyl-D-(N^α methyl)phenylalanyl-L-prolyl]] (cyclo(P[dW][hPhe][dPip][Pip][dNMeF])) | > 1000 nM | > 10000 nM | > 10000 nM |  |
| CC[C@H](C)[C@@H]1NC(=O)[C@@H](Cc2ccccc2)NC(=O)[C@@H]2CCCN2C(=O)[C@@H](Cc2ccccc2)N(C)C(=O)[C@H](CC(=O)NCCc2c[nH]cn2)NC(=O)[C@H]2CCCCN2C1=O [Example 120, c-[D-Phenylalanyl-L-isoleucyl-D-pipecolyl-N^β -(imidazolylethyl)-L-asparagyl-N-methyl-D-phenylalanyl-L-prolyl]] (cyclo(D(NH(2-(imidazol-4-yl)ethyl))[dNMeF]P[dF]I[dPip])) | 120 nM | 10000 nM | 10000 nM |  |
| CC[C@H](C)[C@@H]1NC(=O)[C@@H](Cc2ccccc2)NC(=O)[C@@H]2CCCN2C(=O)[C@@H](Cc2ccccc2)N(C)C(=O)[C@H](CC(N)=O)NC(=O)[C@H]2CCCCN2C1=O [Example 118, c-[D-Phenylalanyl-L-isoleucyl-D-pipecolyl-L-asparagyl-N-methyl-D-phenylalanyl-L-prolyl]] (cyclo(I[dPip]N[dNMeF]P[dF])) | 345 nM | > 10000 nM | 10000 nM |  |
| CC[C@H](C)[C@@H]1NC(=O)[C@@H](Cc2ccc3ccccc3c2)NC(=O)[C@@H]2CCCN2C(=O)[C@@H](Cc2ccccc2)N(C)C(=O)[C@H](CCCCNC(=O)C2C[N+]3(C)CCC2CC3)NC(=O)[C@H]2CCCCN2C1=O (stereo partly drawn) [Example 151, c-[D-2-Napthylalanyl-L-isoleucyl-D-pipecolyl-L-[N-(1-methyl-quinuclidinium-3-yl-carbonyl)]lysyl-D-(N-methyl)phenylalanyl-L-prolyl]] (cyclo(I[dPip]K(X7)[dNMeF]P[d2Nal])) | 10 nM |  |  | IC50 (AVP-V2 sites): 82 nM; IC50 (AVP-V1 sites; [4]): 390 nM |
